Experimental data as given in US20240208954A1, “OXADIAZOLE COMPOUND, PREPARATION METHOD THEREFOR, PHARMACEUTICAL COMPOSITION AND USE THEREOF” (SHANGHAI INSTITUTE OF MATERIA MEDICA, CHINESE ACADEMY OF …, priority 2020, published 2024).
Several values for one entry are separate records, joined by “and”; a condition that tells them apart may be missing. Identical values can stand only once. Like-named read-outs stand apart in the source and are kept apart here.

Columns and labels:
S1PR1 = molecular target: T1, S1PR1 (Homo sapiens, UniProt P21453); assay: Agonistic activity test on S1P receptors, FLIPR, CHO-K1/Ga15/EDG1 cells; type: cell-based; settings: CHO-K1/Ga15/EDG1 cells, FLIPR agonist mode; read-out: S1PR1 EC50
T1 construct: host or cells: CHO-K1 co-expressing Ga15
Description: (§1) Instrument: FLIPR™ TETRA (Molecular Device)
Experimental materials: CHO-K1/Ga15/EDG1 cells constructed by GenScript autonomously.
(§2) Sample processing: Before the experiment, the working solution with the corresponding concentration was prepared by diluting with GPCR dilution buffer.
(§3) After 18-20 hours, the cell culture plat was taken out and added with dye working solution, and then the plate was placed in a 37° C./5% CO2 incubator for 1 hour, and finally equilibrated at room temperature for 15 minutes. Positive agonist working solution was added, and RFU values were detected and recorded. […] The positive agonist working fluid was added to the cell culture plate at the 21st second. […] The antagonistic mode detection program, the overall detection time of the instrument was 120 seconds, and positive antagonist working solution was added to the cell culture plate at the 21st second.
(§4) Data processing: Raw data were obtained via ScreenWorks (version 3.1) and saved as *FMD files on the Kingsray computer network system. Data were collected and analyzed using Excel and GraphPad Prism 6 software programs. For each well, the average fluorescence intensity value from 1 to 20 seconds was used as the baseline, and the maximum fluorescence intensity value from 21 to 120 seconds minus the minimum fluorescence intensity value from 21 to 120 seconds was the relative fluorescence intensity value (ARFU), from which the percentage activation or inhibition can be calculated based on the following equation.
(§5) % Activation Rate=(ΔRFUCompound-ΔRFUBackground)/(ΔRFUAgonist control-ΔRFUBackground)×100%
(§6) The data was analyzed using GraphPad Prism 6 with a four-parameter equation to calculate the EC50 and IC50 values. The four-parameter equation was as follows: y=Bottom+(Top-Bottom)/(1+10^((LogEC50/IC50-X)*HillSlope)), wherein X is the Log value of the concentration and Y was the inhibition rate.

S1PR3 = S1PR3 (Homo sapiens, UniProt Q99500); assay: Agonistic activity test on S1P receptors, FLIPR; type: cell-based
Description: as §1, §2, §3, §4, §5, §6

S1P receptor = assay: Subtype selectivity study of compound A1, overall statement; type: cell-based; settings: especially for S1P1 and S1P5 subtypes
Description: The S1P receptor selectivity was tested for different subtypes using the method described in Experimental Example 1.

[1] = Preliminary assessment of in vivo pharmacokinetics in rats; settings: for concentration at 0.083 h / concentration at 0.25 h / concentration at 0.5 h / concentration at 1 h / concentration at 2 h / concentration at 4 h / concentration at 6 h / concentration at 8 h / concentration at 24 h: read-out: Plasma drug concentrations in rats
[2] = rat, in vivo, rats, intravenous 2 mg/kg, mean

Chain of S1PR3 (Q99500 whole entry, species assumed): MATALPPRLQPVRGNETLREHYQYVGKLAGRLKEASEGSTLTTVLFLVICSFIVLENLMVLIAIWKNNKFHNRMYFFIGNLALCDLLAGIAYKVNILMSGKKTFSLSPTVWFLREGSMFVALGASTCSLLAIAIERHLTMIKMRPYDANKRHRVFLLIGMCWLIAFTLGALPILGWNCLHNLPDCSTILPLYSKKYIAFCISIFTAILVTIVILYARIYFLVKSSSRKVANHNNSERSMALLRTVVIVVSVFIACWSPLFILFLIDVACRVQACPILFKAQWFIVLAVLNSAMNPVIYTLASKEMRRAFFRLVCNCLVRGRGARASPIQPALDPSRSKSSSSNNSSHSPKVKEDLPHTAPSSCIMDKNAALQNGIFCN
T1 sequence (P21453 whole entry): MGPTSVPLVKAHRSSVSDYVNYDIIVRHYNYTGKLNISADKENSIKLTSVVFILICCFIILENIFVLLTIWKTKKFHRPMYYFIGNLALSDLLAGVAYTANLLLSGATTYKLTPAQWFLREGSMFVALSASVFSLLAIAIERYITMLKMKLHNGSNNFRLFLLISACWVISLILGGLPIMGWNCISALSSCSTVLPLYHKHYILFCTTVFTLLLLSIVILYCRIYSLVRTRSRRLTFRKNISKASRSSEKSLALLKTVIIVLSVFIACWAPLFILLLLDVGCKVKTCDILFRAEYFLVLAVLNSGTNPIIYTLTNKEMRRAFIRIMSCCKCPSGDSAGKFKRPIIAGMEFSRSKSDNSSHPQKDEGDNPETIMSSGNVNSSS

CC(C)Oc1ccc(-c2nc(-c3ccc(CN4CC(C(=O)O)C4)c4ccccc34)no2)cc1C#N.Cl [Compound A1, 1-((4-(5-(3-cyano-4-isopropoxyphenyl)-1,2,4-oxadiazol-3-yl)naphthalen-1-yl)methyl) azetidine-3-carboxylic acid hydrochloric acid]
EC50 (S1PR1): 0.048 µM | EC50 (S1PR3; FLIPR agonist mode, read-out: S1PR3 EC50): > 10 µM | EC50 (S1PR3; subtype selectivity study, read-out: S1P3 EC50): > 10 µM | selectivity for different S1P receptor subtypes (S1P receptor): good selectivity | Plasma drug concentrations in rats ([1]; intragastric 20 mg/kg, 0.25 h, individual animals 4-6, listed as DC411151): 1960 ng/mL and 696 ng/mL and 1150 ng/mL | Plasma drug concentrations in rats ([1]; intragastric 20 mg/kg, 0.5 h, individual animals 4-6, listed as DC411151): 1570 ng/mL and 2600 ng/mL | Plasma drug concentrations in rats ([1]; intragastric 20 mg/kg, 1 h, individual animals 4-6, listed as DC411151): 2070 ng/mL and 3070 ng/mL | Plasma drug concentrations in rats ([1]; intragastric 20 mg/kg, 2 h, individual animals 4-6, listed as DC411151): 1220 ng/mL and 2150 ng/mL | Plasma drug concentrations in rats ([1]; intragastric 20 mg/kg, 4 h, individual animals 4-6, listed as DC411151): 635 ng/mL and 841 ng/mL | Plasma drug concentrations in rats ([1]; intragastric 20 mg/kg, 6 h, individual animals 4-6, listed as DC411151): 350 ng/mL and 289 ng/mL | Plasma drug concentrations in rats ([1]; intragastric 20 mg/kg, 8 h, individual animals 4-6, listed as DC411151): 64.0 ng/mL and 57.0 ng/mL | Plasma drug concentrations in rats ([1]; intragastric 20 mg/kg, 24 h, individual animals 4-6, listed as DC411151): 2.49 ng/mL and 2.92 ng/mL | Plasma drug concentrations in rats ([1]; intravenous 2 mg/kg, 0.083 h, individual animals 1-3, listed as DC411151, 2 mg/kg): 3720 ng/mL and 3390 ng/mL | Plasma drug concentrations in rats ([1]; intravenous 2 mg/kg, 0.25 h, individual animals 1-3, listed as DC411151, 2 mg/kg): 2650 ng/mL and 2700 ng/mL | Plasma drug concentrations in rats ([1]; intravenous 2 mg/kg, 0.5 h, individual animals 1-3, listed as DC411151, 2 mg/kg): 1710 ng/mL and 1890 ng/mL | Plasma drug concentrations in rats ([1]; intravenous 2 mg/kg, 1 h, individual animals 1-3, listed as DC411151, 2 mg/kg): 1110 ng/mL and 951 ng/mL | Plasma drug concentrations in rats ([1]; intravenous 2 mg/kg, 2 h, individual animals 1-3, listed as DC411151, 2 mg/kg): 563 ng/mL and 528 ng/mL | Plasma drug concentrations in rats ([1]; intravenous 2 mg/kg, 4 h, individual animals 1-3, listed as DC411151, 2 mg/kg): 138 ng/mL and 172 ng/mL | Plasma drug concentrations in rats ([1]; intravenous 2 mg/kg, 6 h, individual animals 1-3, listed as DC411151, 2 mg/kg): 51.4 ng/mL and 47 ng/mL | Plasma drug concentrations in rats ([1]; intravenous 2 mg/kg, 8 h, individual animals 1-3, listed as DC411151, 2 mg/kg): 13.6 ng/mL and 16.9 ng/mL | Plasma drug concentrations in rats ([1]; intravenous 2 mg/kg, 24 h, individual animals 1-3, listed as DC411151, 2 mg/kg): BQL and 1.94 ng/ml | Tmax ([1]; rat, in vivo, po, rats, intragastric 20 mg/kg, individual animals 4-6, read-out: Tmax): 1 h | AUC0-t ([1]; rat, in vivo, po, rats, intragastric 20 mg/kg, mean, read-out: AUC0-t): 8780 ng·h/mL | Cmax ([1]; rat, in vivo, po, rats, intragastric 20 mg/kg, mean, read-out: Cmax): 2760 ng/mL | clearance [1, 2]: 8.66 mL/min/kg | half-life [1, 2]: 3.04 h | Vd ([1]; rat, in vivo, rats, intravenous 2 mg/kg, mean, read-out: Vss): 0.758 L/kg | concentration at 0.083 h ([1]; rat, plasma, iv, 2 mg/kg, intravenous 2 mg/kg, 0.083 h, individual animals 1-3): 3940 ng/mL | concentration at 0.083 h ([1]; rat, plasma, iv, 2 mg/kg, intravenous 2 mg/kg, 0.083 h, mean): 3680 ng/mL | concentration at 0.25 h ([1]; rat, plasma, iv, 2 mg/kg, intravenous 2 mg/kg, 0.25 h, individual animals 1-3): 2950 ng/mL | concentration at 0.25 h ([1]; rat, plasma, iv, 2 mg/kg, intravenous 2 mg/kg, 0.25 h, mean): 2770 ng/mL | concentration at 0.5 h ([1]; rat, plasma, iv, 2 mg/kg, intravenous 2 mg/kg, 0.5 h, individual animals 1-3): 1570 ng/mL | concentration at 0.5 h ([1]; rat, plasma, iv, 2 mg/kg, intravenous 2 mg/kg, 0.5 h, mean): 1720 ng/mL | concentration at 1 h ([1]; rat, plasma, iv, 2 mg/kg, intravenous 2 mg/kg, 1 h, individual animals 1-3): 900 ng/mL | concentration at 1 h ([1]; rat, plasma, iv, 2 mg/kg, intravenous 2 mg/kg, 1 h, mean): 987 ng/mL | concentration at 2 h ([1]; rat, plasma, iv, 2 mg/kg, intravenous 2 mg/kg, 2 h, individual animals 1-3): 419 ng/mL | concentration at 2 h ([1]; rat, plasma, iv, 2 mg/kg, intravenous 2 mg/kg, 2 h, mean): 503 ng/mL | concentration at 4 h ([1]; rat, plasma, iv, 2 mg/kg, intravenous 2 mg/kg, 4 h, individual animals 1-3): 128 ng/mL | concentration at 4 h ([1]; rat, plasma, iv, 2 mg/kg, intravenous 2 mg/kg, 4 h, mean): 146 ng/mL | concentration at 6 h ([1]; rat, plasma, iv, 2 mg/kg, intravenous 2 mg/kg, 6 h, individual animals 1-3): 45.8 ng/mL | concentration at 6 h ([1]; rat, plasma, iv, 2 mg/kg, intravenous 2 mg/kg, 6 h, mean): 48.1 ng/mL | concentration at 8 h ([1]; rat, plasma, iv, 2 mg/kg, intravenous 2 mg/kg, 8 h, individual animals 1-3): 11.8 ng/mL | concentration at 8 h ([1]; rat, plasma, iv, 2 mg/kg, intravenous 2 mg/kg, 8 h, mean): 14.1 ng/mL | concentration at 24 h ([1]; rat, plasma, iv, 2 mg/kg, intravenous 2 mg/kg, 24 h, individual animals 1-3): 1.16 ng/mL | concentration at 24 h ([1]; rat, plasma, iv, 2 mg/kg, intravenous 2 mg/kg, 24 h, mean): 1.55 ng/mL | AUC(0-inf) ([1]; rat, plasma, iv, 2 mg/kg, rats, intravenous 2 mg/kg, individual animals 1-3): 3570 ng·h/mL
